According to patent US20190105367A1, “ANTIMICROBIAL 4-OXOQUINOLIZINES” (Emergent Product Development Gaithersburg Inc., priority 2011, published 2019):

How the values were obtained:
A. baumannii A401 [1] = test: MIC without and with sub-inhibitory polymyxin B (Example 4); assay type: cell-based, Acinetobacter baumannii; settings: A baumannii A 401; for MIC: 2nd experiment
A. baumannii A390 [2] = test: as above; assay type: cell-based, Acinetobacter baumannii; settings: A. baumannii A390; for MIC: 2nd experiment
A. baumannii A401 [3] = test: Preliminary MBC without and with sub-inhibitory polymyxin B (Example 4); assay type: cell-based, Acinetobacter baumannii; settings: for MBC: 2nd experiment
A. baumannii A473 = test: as above; assay type: cell-based, Acinetobacter baumannii; settings: for MBC: 2nd experiment
Experimental: (§1) The plates were incubated for 18-20 hours at 37° C. The MBC was read as the lowest concentration at which colony growth was ca. 90% less than the positive control (i.e. usually where single colonies or no colonies were observed).

A. baumannii NCTC 13301 [4] = test: as above; assay type: cell-based, Acinetobacter baumannii; settings: A. baumannii NCTC 13301, preliminary MBC; for MBC: 2nd experiment
Experimental: as §1

A. baumannii A14 [5] = test: as above; assay type: cell-based, Acinetobacter baumannii; settings: 2nd experiment
Experimental: as §1

A. baumannii A390 [6] = test: as above; assay type: cell-based, Acinetobacter baumannii; settings: for MBC: 2nd experiment
Experimental: as §1

A. baumannii ATCC 19606 [7] = test: as above; assay type: cell-based, Acinetobacter baumannii; settings: for MBC: 2nd experiment
A. baumannii NCTC 13301 [8] = test: MIC without and with sub-inhibitory polymyxin B (Example 4); assay type: cell-based, Acinetobacter baumannii; settings: A. baumannii NCTC 13301; +[…] polymyxin B; 1st experiment
A. baumannii ATCC 19606 [9] = test: as above; assay type: cell-based, Acinetobacter baumannii; settings: A. baumannii ATCC 19606; for MIC: 2nd experiment
A. baumannii A489 [10] = test: as above; assay type: cell-based, Acinetobacter baumannii; settings: A. baumannii A489; for MIC: 2nd experiment
A. baumannii A472 [11] = test: as above; assay type: cell-based, Acinetobacter baumannii; settings: A. baumannii A472; for MIC: 2nd experiment
A. baumannii NCTC 13301 [12] = test: as above; assay type: cell-based, Acinetobacter baumannii; settings: A. baumannii NCTC 13301; +[…] PB; 2nd experiment
A. baumannii J2 [13] = test: Preliminary MBC without and with sub-inhibitory polymyxin B (Example 4); assay type: cell-based, Acinetobacter baumannii; settings: A. baumannii J2, preliminary MBC; for MBC: 2nd experiment
A. baumannii A14 [14] = test: as above; assay type: cell-based, Acinetobacter baumannii; settings: A. baumannii A14, preliminary MBC, 1st experiment
A. baumannii J2 [15] = test: MIC without and with sub-inhibitory polymyxin B (Example 4); assay type: cell-based, Acinetobacter baumannii; settings: A. baumannii J2
A. baumannii A14 [16] = test: as above; assay type: cell-based, Acinetobacter baumannii; settings: A. baumannii A14, 2nd experiment
[17] = system: strains of A. baumannii and one strain of Acinetobacter sp.; test: MIC with sub-inhibitory concentrations (0.25x MIC) of polymyxin B, panel of Acinetobacter strains (Example 4); assay type: cell-based
A. baumannii A329 = test: Preliminary MBC without and with sub-inhibitory polymyxin B (Example 4); assay type: cell-based, Acinetobacter baumannii; settings: for MBC: 2nd experiment
A. baumannii A489 [18] = test: as above; assay type: cell-based, Acinetobacter baumannii; settings: A. baumannii A489, preliminary MBC; for MBC: 2nd experiment
A. baumannii A472 [19] = test: as above; assay type: cell-based, Acinetobacter baumannii; settings: A. baumannii A472, preliminary MBC; for MBC: 2nd experiment
[20] = system: Acinetobacter sp. (H064200250); test: MIC without and with sub-inhibitory polymyxin B (Example 4); assay type: cell-based; settings: for MIC: Acinetobacter spp. H064200250 (OXA51), 2nd experiment
A. baumannii A14 [21] = test: as above; assay type: cell-based, Acinetobacter baumannii; settings: 1st experiment
[22] = +0.06 μg/ml polymyxin B, 1st experiment
[23] = without polymyxin B, 1st experiment
[24] = +[…] polymyxin B, 1st experiment

Imipenem/cilastatin
4 µg/mL: MIC (A. baumannii A401 [1]; +0.06 μg/ml PB) | MIC (A. baumannii A390 [2]; +0.06 μg/ml PB) | MBC (A. baumannii A401 [3]; A baumannii A 401, +0.06 μg/ml PB) | MBC (A. baumannii A473; A. baumannii A473, +0.06 μg/ml PB) | MBC (A. baumannii A390 [6]; A. baumannii A390, +0.06 μg/ml PB) | MBC (A. baumannii ATCC 19606 [7]; A. baumannii ATCC 19606, without PB) | MIC (A. baumannii ATCC 19606 [9]; without PB, value in parentheses marked *, mark not explained) | MBC without PB (A. baumannii J2 [13]; [23]) | MIC read with alamar blue (A. baumannii J2 [15]; without PB, value in parentheses, 2nd experiment) | MIC without PB (A. baumannii J2 [15]; [23])
32 µg/mL: MIC (A. baumannii A401 [1]; without PB) | MIC without PB (A. baumannii A401 [1]; [23]) | MBC (A. baumannii A401 [3]; A baumannii A 401, without PB) | MBC without PB (A. baumannii A401 [3]; A baumannii A 401, without polymyxin B, 1st experiment) | MBC (A. baumannii A473; A. baumannii A473, without PB) | MBC without PB (A. baumannii A473; A. baumannii A473, without polymyxin B, 1st experiment)
1 µg/mL: MBC (A. baumannii A14 [5]; A. baumannii A14, without PB) | MBC (A. baumannii ATCC 19606 [7]; A. baumannii ATCC 19606, +0.06 μg/ml PB) | MIC (A. baumannii ATCC 19606 [9]; +0.06 μg/ml PB) | MIC +0.06 μg/ml PB (A. baumannii ATCC 19606 [9]; [22]) | MIC (A. baumannii ATCC 19606 [9]; without PB) | MIC (A. baumannii NCTC 13301 [12]) | MBC +0.06 μg/ml PB (A. baumannii A14 [14]; +0.06 μg/ml polymyxin B) | MIC (A. baumannii A14 [16]; +0.06 μg/ml PB) | MIC (A. baumannii A14 [16]; without PB) | MIC +0.06 μg/ml PB (A. baumannii A14 [21]; +0.06 μg/ml polymyxin B) | MIC without PB (A. baumannii A14 [21]; without polymyxin B)
64 µg/mL: MIC (A. baumannii A489 [10]; without PB) | MBC (A. baumannii A489 [18]; without PB) | MBC without PB (A. baumannii A489 [18]; [23])
2 µg/mL: MBC +0.06 μg/ml PB (A. baumannii ATCC 19606 [7]; A. baumannii ATCC 19606, +0.06 μg/ml polymyxin B, 1st experiment) | MBC without PB (A. baumannii ATCC 19606 [7]; A. baumannii ATCC 19606, without polymyxin B, 1st experiment) | MIC without PB (A. baumannii ATCC 19606 [9]; [23]) | MIC +[…] PB (A. baumannii A489 [10]; [24]) | MBC without PB (A. baumannii A14 [14]; without polymyxin B) | MBC +[…] PB (A. baumannii A489 [18]; [24])
0.5 µg/mL: MBC (A. baumannii NCTC 13301 [4]; +[…] PB) | MBC (A. baumannii A14 [5]; A. baumannii A14, +0.06 μg/ml PB) | MIC ([20]; +[…] PB) | MIC +[…] PB ([20]; Acinetobacter spp. H064200250, +[…] polymyxin B, 1st experiment)
<0.125 to 16 µg/mL: MIC range with PB (0.25x MIC) Oct. 1, 2008 n = 8 ([17]; 1st experiment, […] polymyxin B, ATCC 19606, A329, A390 and A473 not taken)
>128 µg/mL: MBC (A. baumannii A329; A. baumannii A329, without PB)
≤0.125 to 128 µg/mL: MIC range with PB (0.25x MIC) Oct. 14, 2008 n = 11 ([17]; 2nd experiment, 0.06 μg/ml polymyxin B, all strains except the ATCC strain)
16 µg/mL: MIC (A. baumannii A390 [2]; without PB) | MIC without PB (A. baumannii A390 [2]; [23]) | MBC +[…] PB (A. baumannii NCTC 13301 [4]; [24]) | MBC (A. baumannii A390 [6]; A. baumannii A390, without PB) | MBC without PB (A. baumannii A390 [6]; A. baumannii A390, without polymyxin B, 1st experiment) | MIC +[…] PB (A. baumannii NCTC 13301 [8]) | MIC without PB (A. baumannii A472 [11]; [23]) | MBC without PB (A. baumannii A472 [19]; [23]) | MIC without PB ([20]; Acinetobacter spp. H064200250, without polymyxin B, 1st experiment)
0.25 µg/mL: MIC (A. baumannii A489 [10]; +[…] PB) | MIC (A. baumannii A472 [11]; +[…] PB) | MIC +[…] PB (A. baumannii A472 [11]; [24]) | MBC (A. baumannii A489 [18]; +[…] PB) | MBC (A. baumannii A472 [19]; +[…] PB) | MBC +[…] PB (A. baumannii A472 [19]; [24])
8 µg/mL: MIC +0.06 μg/ml PB (A. baumannii A401 [1]; [22]) | MBC +0.06 μg/ml PB (A. baumannii A401 [3]; A baumannii A 401, +0.06 μg/ml polymyxin B, 1st experiment) | MIC (A. baumannii A472 [11]; without PB) | MBC (A. baumannii J2 [13]; without PB) | MIC (A. baumannii J2 [15]; without PB, 2nd experiment) | MBC (A. baumannii A472 [19]; without PB) | MIC ([20]; without PB)
≤0.125 µg/mL: MBC (A. baumannii J2 [13]; +[…] PB) | MBC +[…] PB (A. baumannii J2 [13]; [24]) | MIC (A. baumannii J2 [15]; +[…] PB, 2nd experiment) | MIC +[…] PB (A. baumannii J2 [15]; [24])
128 µg/mL: MBC (A. baumannii NCTC 13301 [4]; without PB) | MBC without PB (A. baumannii NCTC 13301 [4]; [23]) | MBC (A. baumannii A329; A. baumannii A329, +0.06 μg/ml PB) | MBC without PB (A. baumannii A329; A. baumannii A329, without polymyxin B, 1st experiment)
